# Tests used:
# [1] = system: A549 cell-derived exosome / A549 cells; test: confocal microscopy of peptide internalization with exosomes; assay type: cell-based, human; details: 10 uM FITC-conjugated peptide, DiD-labeled exosomes, 37° C., 1 hour
# Method: (§1) Media of A549, HEK293, and MDA-MB231 cells were collected, exosomes were isolated through ultracentrifugation, and exosomes were labeled with DiD fluorescence reagent (red), followed by a reaction with ExoPep peptide (FITC label, green). After the reaction, the cells were immobilized, and the nuclei were stained with DAPI (blue) to analyze with confocal microscopy. More specifically, the isolated exosomes and DiD (1:200 dilution) were reacted on a stirrer at 37° C. for 30 minutes. After adding Exoquick reagent, condition was maintained at 4° C. for 30 minutes, and then DiD-labeled exosomes were precipitated by centrifugation at 13000 rpm for 3 minutes. Thereafter, a mixture of 10 uM FITC-conjugated peptide and DiD-labeled exosomes was reacted with A549 cells at 37° C. for 1 hour. After washing three times, immobilization was performed using 2% paraformaldehyde (PFA). After washing again, cells were treated with 4′-6-diamidino-2-phenylindole (DAPI) for nucleus staining. Finally, after mounting, observation was followed using a confocal microscope (Zeiss, Oberkochen, Germany).
# [2] = system: exosomes derived from normal HEK293 cells / HEK293 cells; test: as above; assay type: cell-based; details: same manner
# Method: as §1
# On the other hand, the exosomes derived from normal HEK293 cells were treated in the same manner as described above and observed under a confocal microscope (Zeiss, Oberkochen, Germany).
# [3] = system: exosomes derived from MDA-MB231 breast cancer cells; test: flow cytometry binding of FITC-labeled peptide to exosomes; details: 4° C.
# Excerpt: (§2) 5 types of peptides (CTDTKIK, CRLSKKS, CRKVAKG, CRKRPAL, CAVRRKL) were synthesized based on the result of ELISA shown in FIG. 3. In order to investigate the binding of candidate peptides by FACS method, a peptide in which fluorescein isothiocyanate (FITC), a fluorescent substance, is conjugated to the carboxy terminus was synthesized by requesting Peptron Co. (Daegeon, Korea). Each peptide was synthesized by standard Fmoc method and purified by […]. In addition, FITC-labeled NSSSVDK peptide was used as a control.
# (§3) In order to observe the peptide binding to the exosomes, biotin and exosomes were first combined in the same manner as described in FIG. 3, and then the exosomes were immobilized by binding with avidin beads. The exosome-bead complex was blocked for non-specific binding through treatment of 1% bovine serum albumin (BSA) dissolved in phosphate buffer for 30 minutes at room temperature. After washing, the FITC-labeled peptide was bound to the exosome-bead complex at 4° C. for 30 minutes. After the reaction, the binding of the peptide to the exosomes was analyzed using a flow cytometer.
# (§4) On the other hand, in order to observe the peptide binding to the exosome-producing cells, 1×10^6 cells were first prepared. Each cell medium was treated with 1% BSA at 37° C. for 30 minutes. Thereafter, the FITC-labeled peptide was bound at 4° C. for 1 hour. After the reaction, the binding of the peptide to the cells was analyzed using a flow cytometer.
# [4] = system: exosomes derived from LLC mouse lung cancer cells; test: as above; details: 4° C.
# Excerpt: as §2, §3, §4
# [5] = system: exosomes derived from HT-29 colorectal cancer cells; test: as above; details: 4° C.
# Excerpt: as §2, §3, §4
# [6] = system: exosomes derived from normal MCF10A cells; test: as above; details: 4° C.
# Excerpt: as §2, §3, §4
# [7] = system: exosomes derived from Panc-1 pancreatic cancer cells; test: as above; details: 4° C.
# Excerpt: as §2, §3, §4
# [8] = system: exosomes derived from H460 lung cancer cells; test: as above; details: 4° C.
# Excerpt: as §2, §3, §4
# [9] = system: exosomes derived from HepG2 liver cancer cells; test: as above; details: 4° C.
# Excerpt: as §2, §3, §4
# [10] = system: exosomes derived from normal HEK293 cells; test: as above; details: 4° C.
# Excerpt: as §2, §3, §4
# [11] = system: A549 cell-derived exosomes; test: inhibition of exosome internalization by magnetic removal of peptide-bound exosomes; assay type: cell-based, human; details: exosomes pretreated with biotin-labeled peptide, then removed with magnet
# Method: In order to further identify the binding specificity of the ExoPep peptide to the A549 cell-derived exosome, the exosomes were labeled with a DID fluorescent dye, reacted with the biotin-labeled ExoPep peptide, and then conjugated with biotin by reacting the labeled avidin with magnetic particles. The complex of exosomes/biotin-peptide/avidin-magnetic particles prepared by the reaction was captured and removed using a magnet, and the remaining exosomes were treated to recipient cells (FIG. 5A).
# [12] = system: red blood cells; test: in vitro hemolysis assay; assay type: cell-based; details: various concentrations up to a final concentration of 200 μM, 37° C., 1 hour
# Method: Next, an in vitro hemolysis assay was performed. In vitro hemolysis assay, as an indicator of hemolysis of red blood cells after exposure to a drug or an agent, was conducted by measuring the hemoglobin release in plasma. This is an accurate, sensitive method to predict the hemolytic activity of a drug. Fresh blood was centrifuged at 500×g for 10 minutes, and the pellet of red blood cells was washed 3 times and re-suspended in 10 mM PBS in pH 7.4. Equal volumes of red blood cells were reacted with various concentrations of ExoPep peptide by stirring at 37° C. for 1 hour. The samples were then centrifuged at 4° C. at 500×g for 10 minutes. RBC lysis was measured by analyzing absorbance at OD 540 nm depending on the concentration of different peptides. […] The hemolytic activity of the peptide was calculated in a percentage using the following equation.
# H=100×(OP−OB)/(OT−OB) Equation:
# In the equation above, OP, OB, and OT represent optical density of the peptide solution at an indicated concentration, optical density of a buffer, and optical density of Triton X 100, respectively.
substance,measurement,setting,value
CRKVAKG [ExoPep],peptide observed in cells (internalization with exosomes),[1],observed along with the exosomes in A549 cells
same,peptide observed in cells (internalization with exosomes),[2],not observed in the cells
same,binding to exosomes compared to exosome-producing cell,[3],higher binding
same,binding to exosomes compared to exosome-producing cell,[4],"very low binding, or no higher binding"
same,binding to exosomes compared to exosome-producing cell,[5],"very low binding, or no higher binding"
same,binding to exosomes compared to exosome-producing cell,[6],"very low binding, or no higher binding"
same,binding to exosomes compared to exosome-producing cell,[7],higher binding
same,binding to exosomes compared to exosome-producing cell,[8],higher binding
same,binding to exosomes compared to exosome-producing cell,[9],"very low binding, or no higher binding"
same,binding to exosomes compared to exosome-producing cell,[10],"very low binding, or no higher binding"
same,internalization of exosomes into recipient cells,[11],significantly inhibited
same,hemolytic activity,[12],only low levels of hemolytic activity

# From patent US20230295229A1, “PEPTIDE SELECTIVELY BINDING TO CANCER CELL-DERIVED EXOSOME, AND USES THEREOF” (KYUNGPOOK NATIONAL UNIVERSITY INDUSTRY-ACADEMIC COOPERATION …, priority 2020, published 2023)
